# Earlier results, collected in patent publication US11865206B2 (priority 2018, dated 2024).
# Where two headings read alike, the source gives them in different places.
# Tests used:
# [1] = not given; remark: listed apart in the source
smiles,measurement,setting,value
"O=NN(CCCl)C(=O)NCCCl [Carmustine, 1,3-bis(2-chloroethyl)-1-nitrosourea]",Solubility,in alcohol and lipids,highly soluble
same,Solubility,in water,poorly soluble
same,Crossing of the blood brain barrier,[1]; following IV infusion,can cross the blood brain barrier
same,Oral bioavailability,[1]; oral,poor oral bioavailability
